Test results taken from US20090012067A1, “Modulation of Hypothalamic Atp-Sensitive Potassium Channels” (priority 2005, published 2009).

Experiments:
[1] = test system: hypothalamic KATP channels; assay: ICV infusion of insulin, KATP channel blocker (glibenclamide) or both with pancreatic-insulin clamp (1 mU/kg·min); type: in vivo, Sprague-Dawley rats; conditions: for Direct: ICV infusion, direct pathway; for glucose infusion needed to prevent hypoglycemia: near basal circulating insulin levels
Text: Animal preparation for the in vivo experiments. Rats. Eighty-nine 10-week-old male Sprague-Dawley rats (Charles River Breeding Laboratories, Wilmington, Mass.) were studied. Rats were housed in individual cages and subjected to a standard light-dark cycle. Three weeks prior to the in vivo studies, chronic catheters were implanted in the third cerebral ventricle (Obici et al., 2003; Liu et al., 1998) or intrahypothalamically (Morton et al., 2003) (IH) by stereotaxic surgery. […] In vivo studies. For the studies in rats, the metabolic experiments were performed ˜3 weeks after stereotaxic surgery following complete recovery from the operation (FIG. 5). All solutions were diluted with artificial cerebral spinal fluid (aCSF). […] Euglycemic-hyperinsulinemic clamps in conscious, unrestrained, catheterized mice were performed for 90 min as previously described (Obici et al., 2003; Liu et al., 1998). Hepatic glucose fluxes. Rate of hepatic glucose fluxes was determined as described. Barzilai et al., 1997).

G6Pase = assay: liver G6Pase mRNA by real-time PCR after the infusions; type: in vivo, Sprague-Dawley rats
Text: (§1) Gene expression. Gluconeogenic enzymes. Quantitative analysis of gene expression was done using RT-PCR. Total RNA was isolated with Trizol (Invitrogen) and single-strand cDNA was synthesized with a kit provided by Invitrogen. Real-time PCR reactions and the primers for G6Pase and PEPCK were done as described (Pocai et al., in press). The copy number of each transcript was derived from a standard curve of cloned target templates. Expression of each transcript was normalized to copy number for 18s ribosomal protein.

PEPCK = assay: liver PEPCK mRNA by real-time PCR after the infusions; type: in vivo, Sprague-Dawley rats
Text: as §1

[2] = test system: hypothalamic KATP channels; assay: central infusion in rats on a high fat diet for three days (hepatic insulin resistance), glucose production; type: in vivo; conditions: plasma insulin 20 μU/ml
Procedure: Additional experiments were also performed in rats maintained on a high fat diet regimen for three days.

[3] = test system: KATP channels within the medial hypothalamus; assay: Intrahypothalamic (IH) infusion of diazoxide or insulin with pancreatic-insulin clamp; type: in vivo, Sprague-Dawley rats; conditions: for rate of glucose infusion required to prevent hypoglycemia: IH infusion during a pancreatic clamp, vs vehicle; for blood glucose levels / GP (glucose production): IH infusion; for blood glucose levels: bilateral, medial hypothalamus, total dose insulin 2 μU; for GP (glucose production): basal circulating insulin
Text: Animal preparation for the in vivo experiments. Rats. Eighty-nine 10-week-old male Sprague-Dawley rats (Charles River Breeding Laboratories, Wilmington, Mass.) were studied. Rats were housed in individual cages and subjected to a standard light-dark cycle. Three weeks prior to the in vivo studies, chronic catheters were implanted in the third cerebral ventricle (Obici et al., 2003; Liu et al., 1998) or intrahypothalamically (Morton et al., 2003) (IH) by stereotaxic surgery. One week before the pancreatic-insulin clamp protocols, rats received additional catheters in the right internal jugular and left carotid artery (FIG. 5) (Obici et al., 2003; Liu et al., 1998). In vivo studies. For the studies in rats, the metabolic experiments were performed ˜3 weeks after stereotaxic surgery following complete recovery from the operation (FIG. 5). All solutions were diluted with artificial cerebral spinal fluid (aCSF). […] Pancreatic-insulin clamp studies were performed as previously described (Liu et al., 1998). Euglycemic-hyperinsulinemic clamps in conscious, unrestrained, catheterized mice were performed for 90 min as previously described (Obici et al., 2003; Liu et al., 1998).

central KATP channels = assay: ICV infusion of diazoxide with pancreatic-insulin clamp (1 mU/kg·min) in conscious rats; type: in vivo, Sprague-Dawley rats
Text: Animal preparation for the in vivo experiments. Rats. Eighty-nine 10-week-old male Sprague-Dawley rats (Charles River Breeding Laboratories, Wilmington, Mass.) were studied. Rats were housed in individual cages and subjected to a standard light-dark cycle. Three weeks prior to the in vivo studies, chronic catheters were implanted in the third cerebral ventricle (Obici et al., 2003; Liu et al., 1998) or intrahypothalamically (Morton et al., 2003) (IH) by stereotaxic surgery. One week before the pancreatic-insulin clamp protocols, rats received additional catheters in the right internal jugular and left carotid artery (FIG. 5) (Obici et al., 2003; Liu et al., 1998). In vivo studies. For the studies in rats, the metabolic experiments were performed ˜3 weeks after stereotaxic surgery following complete recovery from the operation (FIG. 5). All solutions were diluted with artificial cerebral spinal fluid (aCSF). […] Pancreatic-insulin clamp studies were performed as previously described (Liu et al., 1998). Euglycemic-hyperinsulinemic clamps in conscious, unrestrained, catheterized mice were performed for 90 min as previously described (Obici et al., 2003; Liu et al., 1998). Hepatic glucose fluxes. Rate of hepatic glucose fluxes was determined as described. Barzilai et al., 1997).

[4] = test system: hepatic glucose production; assay: pancreatic-hyperinsulinemic clamp (insulin 3 mU/kg·min) in SHAM and HV rats; type: in vivo, Sprague-Dawley rats; conditions: for suppression of GP (glucose production): hyperinsulinemia ~3-fold over basal; for Direct / % Indirect: systemic insulin (3 mU); for Direct: direct pathway; for % Indirect: indirect pathway
Procedure: Panel A is a schematic representation of the pancreatic-hyperinsulinemic clamp procedure. At t=120 an infusion of labeled glucose was initiated and maintained for the remaining 4 hours of the study and a pancreatic hyperinsulinemic clamp was initiated at t=240 min and lasted for 2 hours. […] The figure is a longitudinal view of a rat brain, with olfactory bulb at the anterior end on the left and the caudal hindbrain on the right.
(§2) In vivo studies. For the studies in rats, the metabolic experiments were performed ˜3 weeks after stereotaxic surgery following complete recovery from the operation (FIG. 5). All solutions were diluted with artificial cerebral spinal fluid (aCSF). […] Euglycemic-hyperinsulinemic clamps in conscious, unrestrained, catheterized mice were performed for 90 min as previously described (Obici et al., 2003; Liu et al., 1998).
(§3) Selective hepatic branch vagotomy. One week before the clamp procedure a subgroup of rats underwent selective hepatic vagotomy (HV) or sham operation (SHAM). Anatomical nerve transactions was verified in each rat at sacrifice by microscopic observation of the absence of vagal nerve fibers in between the two silk sutures that had been placed along the trunk at the time of transection (la Fleur et al., 2003).
(§4) Hepatic glucose fluxes. Rate of hepatic glucose fluxes was determined as described. Barzilai et al., 1997).

[5] = biological target: T1, hypothalamic insulin receptors (Rattus norvegicus, UniProt P15127); assay: ICV insulin in rats with hepatic branch vagotomy (HV), sham operation or vagal deafferentation, pancreatic-insulin clamp (1 mU/kg·min); type: in vivo, Sprague-Dawley rats
T1 construct: Paired groups of SHAM and HV rats received an ICV infusion of either insulin or vehicle; from tissue; host or cells: CNS / hypothalamus of living Sprague-Dawley rats (ICV infusion)
T1 sequence (P15127 27-759 limits assumed): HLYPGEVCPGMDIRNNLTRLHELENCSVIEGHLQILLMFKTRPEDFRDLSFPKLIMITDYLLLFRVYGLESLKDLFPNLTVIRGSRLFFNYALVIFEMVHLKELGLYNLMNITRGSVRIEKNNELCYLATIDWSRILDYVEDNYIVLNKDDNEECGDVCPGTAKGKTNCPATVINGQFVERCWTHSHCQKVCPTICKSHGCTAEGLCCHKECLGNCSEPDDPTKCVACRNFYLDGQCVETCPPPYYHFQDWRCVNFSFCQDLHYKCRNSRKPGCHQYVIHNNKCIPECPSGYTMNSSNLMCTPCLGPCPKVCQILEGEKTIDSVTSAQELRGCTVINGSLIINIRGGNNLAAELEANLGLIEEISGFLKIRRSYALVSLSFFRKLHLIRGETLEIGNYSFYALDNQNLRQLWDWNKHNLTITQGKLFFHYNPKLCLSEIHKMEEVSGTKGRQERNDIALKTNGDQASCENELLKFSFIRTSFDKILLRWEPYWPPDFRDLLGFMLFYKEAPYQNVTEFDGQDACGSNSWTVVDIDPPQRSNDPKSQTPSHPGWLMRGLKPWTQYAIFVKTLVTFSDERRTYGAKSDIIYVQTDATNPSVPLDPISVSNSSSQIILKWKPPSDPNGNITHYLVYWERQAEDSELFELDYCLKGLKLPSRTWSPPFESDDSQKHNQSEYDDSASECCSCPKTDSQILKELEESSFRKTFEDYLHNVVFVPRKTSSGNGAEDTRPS
T1 sequence (P15127 764-1383 partner limits assumed): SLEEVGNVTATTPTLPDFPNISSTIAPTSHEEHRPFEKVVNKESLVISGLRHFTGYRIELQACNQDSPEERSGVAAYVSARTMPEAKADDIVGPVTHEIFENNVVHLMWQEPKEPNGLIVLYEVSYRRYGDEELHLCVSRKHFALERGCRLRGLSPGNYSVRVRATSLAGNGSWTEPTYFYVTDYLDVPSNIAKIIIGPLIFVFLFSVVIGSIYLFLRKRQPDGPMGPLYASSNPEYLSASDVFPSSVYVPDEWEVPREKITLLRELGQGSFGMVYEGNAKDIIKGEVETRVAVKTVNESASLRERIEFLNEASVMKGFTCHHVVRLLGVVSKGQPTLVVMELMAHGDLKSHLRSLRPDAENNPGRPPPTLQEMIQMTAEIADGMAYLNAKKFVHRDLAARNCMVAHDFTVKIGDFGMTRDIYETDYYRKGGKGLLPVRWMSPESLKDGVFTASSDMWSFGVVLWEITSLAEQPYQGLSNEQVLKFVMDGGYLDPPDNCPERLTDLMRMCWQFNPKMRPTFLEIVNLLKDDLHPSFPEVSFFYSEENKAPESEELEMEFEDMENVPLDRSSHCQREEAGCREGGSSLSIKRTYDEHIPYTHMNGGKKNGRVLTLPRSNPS
Text: Animal preparation for the in vivo experiments. Rats. Eighty-nine 10-week-old male Sprague-Dawley rats (Charles River Breeding Laboratories, Wilmington, Mass.) were studied. Rats were housed in individual cages and subjected to a standard light-dark cycle. Three weeks prior to the in vivo studies, chronic catheters were implanted in the third cerebral ventricle (Obici et al., 2003; Liu et al., 1998) or intrahypothalamically (Morton et al., 2003) (IH) by stereotaxic surgery.
as §2, §3
Selective vagal deafferentation. Nerve transection was performed as previously described, according to the methods of Norgren and Smith (Norgren & Smith, 1998).
as §4

[6] = ICV insulin with or without KATP channel blocker
[7] = selective vagal deafferentation, ability of central insulin not altered

Compound: COc1ccc(Cl)cc1C(=O)NCCc1ccc(S(=O)(=O)NC(=O)NC2CCCCC2)cc1 [glibenclamide, 5-Chloro-N-[2-[4-(3-cyclohexylureidosulfonyl)phenyl]-ethyl]-2-methoxybenzamide, reference compound]
- Direct [1]: 18.5 ± 2.8%
- GP (glucose production) ([1]; ICV, blocker alone or co-infused with insulin): did not per se affect GP
- glucose infusion needed to prevent hypoglycemia ([1]; ICV): did not modify the rate of glucose infusion

Compound: CC1=NS(=O)(=O)c2cc(Cl)ccc2N1 [diazoxide, reference compound]
- liver G6Pase mRNA levels (G6Pase; ICV diazoxide study): markedly decreased
- liver PEPCK mRNA levels (PEPCK; ICV diazoxide study): markedly decreased
- inhibition of glucose production ([2]; ICV or intrahypothalamic infusion): ~45%
- rate of glucose infusion required to prevent hypoglycemia [3]: significant increases
- blood glucose levels [3]: lowered blood glucose levels
- GP (glucose production) [3]: marked suppression of GP
- glucose cycling (central KATP channels; ICV): significantly reduced
- in vivo flux through G6Pase (central KATP channels; ICV): decreased the flux through G6Pase
- Direct (central KATP channels; ICV infusion, direct pathway): 14.37 ± 2.2%
- decrease in GP (glucose production) (central KATP channels; ICV, 1.5 nmol, basal insulin levels (~20 μU/ml)): 45±4%
- glucose infusion needed to prevent hypoglycemia (central KATP channels; ICV, basal circulating insulin levels): glucose infusion was required to prevent hypoglycemia

Compound: insulin
- liver G6Pase mRNA levels (G6Pase; [6]): marked KATP channels dependent decreases
- liver G6Pase mRNA levels (G6Pase; SHAM, ICV insulin): marked decrease
- Glucose ([4]; HV, Clamp, systemic insulin 3 mU/Kg·min): 8.1 ± 0.5 mM
- suppression of GP (glucose production) ([4]; HV): 38±11%
- Direct ([4]; HV): 22.0 ± 2.3%
- % Indirect ([4]; HV): 60.7 ± 9.4 %
- suppression of GP (glucose production) ([4]; SHAM): 80±8%
- Direct ([4]; SHAM): 22.8 ± 3.9%
- % Indirect ([4]; SHAM): 34.5 ± 6.7%
- liver PEPCK mRNA levels (PEPCK; HV, ICV insulin): not in HV rats
- liver PEPCK mRNA levels (PEPCK; [6]): marked KATP channels dependent decreases
- liver PEPCK mRNA levels (PEPCK; SHAM, ICV insulin): marked decrease
- glucose production ([2]; central administration): failed to significantly inhibit glucose production
- ^14C-PEP ([5]; HV, ICV): 5.5 ± 1.4 dpm/nmol
- glucose infusion needed to prevent hypoglycemia ([5]; HV, ICV insulin): not in the HV rats
- hepatic glucose fluxes ([5]; HV, ICV insulin): failed to affect hepatic glucose fluxes
- ^3H-Glucose Plasma SA ([5]; SHAM, ICV): 43.1 ± 1.9 dpm/nmol
- ^3H-UDPglucose Liver SA ([5]; SHAM, ICV): 5.5 ± 0.5 dpm/nmol
- gluconeogenesis ([5]; SHAM, ICV insulin): marked inhibition of gluconeogenesis
- glucose infusion needed to prevent hypoglycemia ([5]; SHAM, ICV insulin): glucose infusion was required to prevent hypoglycemia
- in vivo flux through G6Pase ([5]; SHAM, ICV insulin): markedly decreased
- Direct ([5]; SHAM, ICV, direct pathway): 12.1 ± 0.7%
- rate of glucose uptake ([5]; either SHAM or HV rats, ICV): not significantly affected
- GP (glucose production) [5, 7]: suppress GP
- blood glucose levels [5, 7]: lower blood glucose levels
- rate of glucose infusion required to prevent hypoglycemia [3]: significant increases
- blood glucose levels [3]: reproduced the potent effects of ICV insulin or diazoxide
- GP (glucose production) [3]: reproduced the potent effects of ICV insulin or diazoxide
- in vivo flux through G6Pase ([1]; ICV): markedly decreased
- Direct [1]: 12.1 ± 0.7%
- decrease in GP (glucose production) ([1]; ICV insulin 30 μU, basal and equal insulin levels (~20 μU/ml)): 52±8%
- glucose infusion needed to prevent hypoglycemia ([1]; ICV): glucose infusion was required to prevent hypoglycemia
- rate of glucose disposal (uptake) ([1]; ICV, pancreatic-insulin clamp): not significantly affected
